pIC50: −log10 of the molar value.
Tests used:
[1] = Kinetic turbidimetric aqueous solubility; assay type: physicochemical; conditions: aqueous buffer, kinetic from dmso stock; PBS buffer, final DMSO 2%, absorbance 620 nm; read-out: Kinetic Turbidimetric Aqueous Solubility at room temperature for 5 min
Procedure: Kinetic Turbidimetric Aqueous Solubility at room temperature for 5 min. […] Data was analyzed by fitting a four parameter sigmoidal function to the measured and normalized absorbances and AUC calculation providing access to Log S (decadic logarithm of the solubility).

[2] = tested on: P. aeruginosa pyocyanin production; assay: Pyocyanin assay; assay type: cell-based, P. aeruginosa strain PA14; conditions: Pseudomonas aeruginosa, PA14, 16 h, read-out: IC50-value towards pyocyanin production
Procedure: Inhibition of P. aeruginosa pyocyanin production by compounds was determined photometrically as described before. In short, an overnight culture of PA14 in PPGAS medium was washed, diluted in medium to a start OD600 of 0.02, and incubated for 16 h (37° C., 200 rpm, relative humidity 75%) in the presence of test compounds. Then, cultures were extracted with chloroform and re-extracted with 0.2 M HCl. Protonated red colored pyocyanin was determined by measuring OD520 and normalizing to OD600.

[3] = Metabolic stability in mouse liver microsomes (MLM); assay type: in vitro ADME; conditions: 1 μM compound, 0.5 mg/mL MLM, 1 mM NADPH, 37° C., read-out: half-life (t1/2) towards MLM
Procedure: For the evaluation of phase I metabolic stability, the compound (1 μM) was incubated with 0.5 mg/mL MLM (Corning) and 1 mM NADPH at 37° C. for 0, 5, 10, 15 and 30 min. The metabolic stability of Verapamil, Diphenhydramine and Benzydamine (1 μM each) were determined in parallel to confirm the enzymatic activity of the MLM. The incubation was stopped by addition of 2 volumes of acetonitrile containing internal standard (1 μM Leucine Enkephaline). Samples were centrifuged (15 min, 3,500 rpm). Concentration of the remaining test compound at the different time points was analyzed by HPLC-MS/MS and used to determine half-life (t1/2).

SMILES | solubility at 5 min [1] | pIC50 [2] | half-life at 1 µM [3]
CC(C)Oc1ccc(-n2cc(CNc3cc(-c4cn[nH]c4)nc(C(F)(F)F)c3)nn2)cc1 [Compound 05, N-((1-(4-Isopropoxyphenyl)-1H-1,2,3-triazol-4-yl)methyl)-2-(1H-pyrazol-4-yl)-6-(trifluoromethyl)pyridin-4-amine] | > 25 µM |  | 
CC(C)Oc1ccc(-c2ccc(CNc3cc(-c4cn[nH]c4)nc(C(F)(F)F)c3)nn2)cc1 [Compound 22, N-((6-(4-Isopropoxyphenyl)pyridazin-3-yl)methyl)-2-(1H-pyrazol-4-yl)-6-(trifluoromethyl)pyridin-4-amine] | > 25 µM | 6.30 to 6.70 | 
CC(C)Oc1ccc(-c2ccc(CNc3cc(-n4cncn4)nc(C(F)(F)F)c3)nc2)cc1 [Compound 25, N-((5-(4-Isopropoxyphenyl)pyridin-2-yl)methyl)-2-(1H-1,2,4-triazol-1-yl)-6-(trifluoromethyl)pyridin-4-amine] |  | 6.70 to 7.00 | > 1.67 h
CC(C)Oc1ccc(-c2ccc(CNc3cc(-n4cncn4)nc(C(F)(F)F)c3)nc2)cc1Cl [Compound 26, N-((5-(3-Chloro-4-isopropoxyphenyl)pyridin-2-yl)methyl)-2-(1H-1,2,4-triazol-1-yl)-6-(trifluoromethyl)pyridin-4-amine] |  | 6.30 to 6.70 | > 1.67 h
CC(C)Oc1ccc(-c2ncc(CNc3cc(-n4ccnc4)nc(C(F)(F)F)c3)cn2)cc1 [Compound 29, 2-(1H-Imidazol-1-yl)-N-((2-(4-isopropoxyphenyl)pyrimidin-5-yl)methyl)-6-(trifluoromethyl)pyridin-4-amine] |  | 6.70 to 7.00 | > 1.67 h
N#Cc1cccc(-c2ncc(CNc3cc(-c4cn[nH]c4)nc(C(F)(F)F)c3)cn2)c1 [Compound 36, 3-(5-(((2-(1H-Pyrazol-4-yl)-6-(trifluoromethyl)pyridin-4-yl)amino)methyl)pyrimidin-2-yl)benzonitrile] | > 25 µM | 6.30 to 6.70 | 
Cc1ccc(-c2ncc(CNc3cc(-c4cn[nH]c4)nc(C(F)(F)F)c3)cn2)cc1C#N [Compound 37, 5-(5-(((2-(1H-Pyrazol-4-yl)-6-(trifluoromethyl)pyridin-4-yl)amino)methyl)pyrimidin-2-yl)-2-methylbenzonitrile] | > 10 µM | 6.70 to 7.00 | 
N#Cc1cc(-c2ncc(CNc3cc(-c4cn[nH]c4)nc(C(F)(F)F)c3)cn2)ccc1F [Compound 38, 5-(5-(((2-(1H-Pyrazol-4-yl)-6-(trifluoromethyl)pyridin-4-yl)amino)methyl)pyrimidin-2-yl)-2-fluorobenzonitrile] | > 25 µM | 6.70 to 7.00 | 
CC(C)Oc1ccc(-c2cnc(CNc3cc(-c4cn[nH]c4)nc(C(F)(F)F)c3)nc2)cc1 [Compound 40, N-((5-(4-Isopropoxyphenyl)pyrimidin-2-yl)methyl)-2-(1H-pyrazol-4-yl)-6-(trifluoromethyl)pyridin-4-amine] | > 10 µM | 6.30 to 6.70 | 
N#Cc1cc(-c2ncc(CNc3cc(-c4cn[nH]c4)nc(C(F)(F)F)c3)cn2)ccc1Cl [Compound 50, 5-(5-(((2-(1H-Pyrazol-4-yl)-6-(trifluoromethyl)pyridin-4-yl)amino)methyl)pyrimidin-2-yl)-2-chlorobenzonitrile] |  | 6.70 to 7.00 | 
FC(F)(F)c1cc(SCc2nc3cc(Oc4ccccc4)ccc3[nH]2)cc(-n2ccnc2)n1 [Compound 62, 2-(((2-(1H-Imidazol-1-yl)-6-(trifluoromethyl)pyridin-4-yl)thio)methyl)-5-phenoxy-1H-benzo[d]imidazole] |  | 6.30 to 6.70 | 
FC(F)(F)c1nc(SCc2nc3cc(Oc4ccccc4)ccc3[nH]2)cc(-n2ccnc2)n1 [Compound 63, 2-(((6-(1H-Imidazol-1-yl)-2-(trifluoromethyl)pyrimidin-4-yl)thio)methyl)-5-phenoxy-1H-benzo[d]imidazole] | > 10 µM |  | 
FC(F)(F)c1cc(SCc2nc3cc(Oc4ccccc4)ccc3[nH]2)cc(-c2cn[nH]c2)n1 [Compound 64, 2-(((2-(1H-pyrazol-4-yl)-6-(trifluoromethyl)pyridin-4-yl)thio)methyl)-5-phenoxy-1H-benzo[d]imidazole] | > 10 µM | 6.70 to 7.00 | 

— US20230106506A1, “NOVEL PqsR INVERSE AGONISTS” (Helmholtz-Zentrum Fur Infektionsforschung GmbH, priority 2020, published 2023)
